Where two headings read alike, the source gives them in different places.
How the values were obtained:
[1] = tested on: anaesthetized dog; experiment: Antiangorous activity on anaesthetized dog: consumption of oxygen in the left ventricule and cardiac effort (KATZ's index); assay type: in vivo; conditions: for inhibition in vivo at 2.5 mg/kg / inhibition in vivo at […] / inhibition in vivo at 10 mg/kg / inhibition in vivo at 1.25 mg/kg / inhibition in vivo at 0.625 mg/kg: Canis lupus familiaris, iv; for inhibition in vivo at […]: 0.15 mg/kg i.v. slow perfusion
Description: The antiangorous activity was tested on an anaesthetized dog (sodium pentobarbital 30 mg/kg/i.v.).
The consumption of oxygen in the left ventricule was estimated by the product of the coronary venous flow and the coronary arteriovenous difference in oxygen (% volume).
The coronary venous flow was measured at the coronary venous sinus by means of a modified Morawitz cannula, introduced under radioscopic control.
The cardiac effort was estimated according to KATZ's index, by the product of the average arterial pressure and the cardiac frequency.
The cardiac frequency was estimated from the electrocardiogram recorded with D2 derivation.
It should be noted that the compounds tested were injected intravenously with slow perfusion.

[2] = in vivo; conditions: iv, read-out: Toxicity: LD50
Description: *LD50 or percentage of mortality which is given between brackets

[3] = 2.5 mg/kg i.v. slow perfusion, read-out: Diminution in consumption of O2
[4] = 2.5 mg/kg i.v. slow perfusion, read-out: Diminution in the cardiac effort (IK)
[5] = read-out: Diminution in consumption of O2
[6] = read-out: Diminution in the cardiac effort (IK)
[7] = 1.25 mg/kg i.v. slow perfusion, read-out: Diminution in consumption of O2
[8] = 1.25 mg/kg i.v. slow perfusion, read-out: Diminution in the cardiac effort (IK)
[9] = 0.625 mg/kg i.v. slow perfusion

SMILES | Diminution in consumption of O2: in time ([1]; 2.5 mg/kg i.v. slow perfusion) [min] | Diminution in the cardiac effort (IK): in time ([1]; 2.5 mg/kg i.v. slow perfusion) [min] | inhibition in vivo at 2.5 mg/kg [1, 3] [%] | inhibition in vivo at 2.5 mg/kg [1, 4] [%] | further results
COc1cc(/C=C/C(=O)N2CCN(CC(O)COc3cccc4c3CCCC4=O)CC2)cc(OC)c1OC (stereo not drawn) [760 986] | 60 | 60 | 61 | 27 | LD50 [2]: 218 mg/kg
COc1cc(/C=C/C(=O)N2CCN(CC(O)COc3ccc(CC#N)c4c3OCCO4)CC2)cc(OC)c1OC (stereo not drawn) [770 188] |  |  |  |  | LD50 [2]: 219 mg/kg
CNC(=O)Nc1cc(Cl)c(OCC(O)CN2CCN(C(=O)/C=C/c3cc(OC)c(OC)c(OC)c3)CC2)c(Cl)c1 (stereo not drawn) [780 292] | 90 | 45 | 59 | 34 | 
CNC(=O)Nc1ccc(OCC(O)CN2CCN(C(=O)/C=C/c3cc(OC)c(OC)c(OC)c3)CC2)c2ccccc12 (stereo not drawn) [771 031] |  |  |  |  | inhibition in vivo at […] [1, 5]: 20%; inhibition in vivo at […] [1, 6]: 25%
CCCCc1oc2ccccc2c1C(=O)c1cc(I)c(OCCN(CC)CC)c(I)c1 [AMIODARONE, reference compound] |  |  |  |  | Diminution in consumption of O2: in time ([1]; 10 mg/kg i.v. slow perfusion): 15 min; Diminution in the cardiac effort (IK): in time ([1]; 10 mg/kg i.v. slow perfusion): 15 min; inhibition in vivo at 10 mg/kg ([1]; 10 mg/kg i.v. slow perfusion, read-out: Diminution in consumption of O2): 11%; inhibition in vivo at 10 mg/kg ([1]; 10 mg/kg i.v. slow perfusion, read-out: Diminution in the cardiac effort (IK)): 22%
COc1cc(/C=C/C(=O)N2CCN(CC(O)COc3ccc(NC(C)=O)c4c3CCC4)CC2)cc(OC)c1OC (stereo not drawn) [771 306] |  |  |  |  | Diminution in consumption of O2: in time ([1]; 1.25 mg/kg i.v. slow perfusion): 15 min; Diminution in the cardiac effort (IK): in time ([1]; 1.25 mg/kg i.v. slow perfusion): 30 min; inhibition in vivo at 1.25 mg/kg [1, 7]: 58%; inhibition in vivo at 1.25 mg/kg [1, 8]: 38%
COc1cc(/C=C/C(=O)N2CCN(CC(O)COc3ccc(OC)c4c3OCCO4)CC2)cc(OC)c1OC (stereo not drawn) [780 009] |  |  |  |  | Diminution in consumption of O2: in time ([1]; 1.25 mg/kg i.v. slow perfusion): 35 min; Diminution in the cardiac effort (IK): in time ([1]; 1.25 mg/kg i.v. slow perfusion): 30 min; inhibition in vivo at 1.25 mg/kg [1, 7]: 48%; inhibition in vivo at 1.25 mg/kg [1, 8]: 20%
COc1cc(/C=C/C(=O)N2CCN(CC(O)COc3c(Cl)cc(C(C)=O)cc3Cl)CC2)cc(OC)c1OC (stereo not drawn) [780 339] | 45 | 40 | 74 | 42 | 
COc1cc(/C=C/C(=O)N2CCN(CC(O)COc3ccc(C(=O)OC4CCCCC4)c4c3OCCO4)CC2)cc(OC)c1OC (stereo not drawn) [780 333] |  |  |  |  | inhibition in vivo at […] [1, 5]: 51%; inhibition in vivo at […] [1, 6]: 21%
CNC(=O)Nc1ccc(OCC(O)CN2CCN(C(=O)/C=C/c3cc(OC)c(OC)c(OC)c3)CC2)c2c1CCC2 (stereo not drawn) [771 153] | 23 | 40 | 31 | 63 | 
COc1cc(/C=C/C(=O)N2CCN(CC(O)COc3ccc(C(=O)OC(C)(C)C)c4c3OCCO4)CC2)cc(OC)c1OC (stereo not drawn) [780 369] |  |  |  |  | Diminution in consumption of O2: in time [1, 9]: 15 min; Diminution in the cardiac effort (IK): in time [1, 9]: 15 min; inhibition in vivo at 0.625 mg/kg ([1]; 0.625 mg/kg i.v. slow perfusion, read-out: Diminution in consumption of O2): 37%; inhibition in vivo at 0.625 mg/kg ([1]; 0.625 mg/kg i.v. slow perfusion, read-out: Diminution in the cardiac effort (IK)): 4%
COc1cc(/C=C/C(=O)N2CCN(CC(O)COc3ccc(C(C)=O)cc3F)CC2)cc(OC)c1OC (stereo not drawn) [780 353] | 15 | 15 | 46 | 16 | 
CCCCCOC(=O)c1ccc(OCC(O)CN2CCN(C(=O)/C=C/c3cc(OC)c(OC)c(OC)c3)CC2)c2c1OCCO2 (stereo not drawn) [780 301] |  |  |  |  | inhibition in vivo at […] [1, 5]: 40%; inhibition in vivo at […] [1, 6]: 28%
COc1cc(/C=C/C(=O)N2CCN(CC(O)COc3ccc(C(C)=O)c4c3CCC4)CC2)cc(OC)c1OC (stereo not drawn) [760 852] | 30 | 45 | 44 | 23 | 

Source: US4178442A, “Novel cinnamoyles piperazines and homopiperazines, the method of preparing them and their application in therapeutics” (Delalande S. A., priority 1977, dated 1979)
